The record followed here is ChEMBL document CHEMBL3351679, “Radioiodinated benzyloxybenzene derivatives: a class of flexible ligands target to β-amyloid plaques in Alzheimer's brains” (J Med Chem, 2014).

Data set [1] addresses T1, Amyloid-beta precursor protein (Homo sapiens, UniProt P05067). Briefly: Displacement of [125I]1-Iodo-4-((4-methoxyphenoxy)methyl)benzene from amyloid beta42 (unknown origin) after 3 hrs by gamma counting.
Data set [2] concerns Brain. The data set is described as follows: Biodistribution in ICR mouse brain at 250 uCi, iv measured at 60 mins post dose. Particulars: in vivo, 1 h. The class given is ADME, organism-based.
The nature of data set [3]: Partition coefficient, log D of the compound. The format is physicochemical. Conditions: octanol/water.
Data set [4] relates to Brain. Briefly: Biodistribution in ICR mouse brain at 250 uCi, iv measured at 2 mins post dose. The format is ADME, organism-based. Conditions: in vivo.
A short description of data set [5]: In vivo biostability in ICR mouse feces assessed as radioactivity at 250 uCi, iv measured at 30 mins post dose. The format is ADME, organism-based. Particulars: 0.5 h.
Data set [6] deals with Liver. Briefly: In vivo biostability in ICR mouse liver assessed as radioactivity at 250 uCi, iv measured at 60 mins post dose. The class given is ADME, organism-based. Conditions: 1 h.
Data set [7] concerns Liver. Briefly: In vivo biostability in ICR mouse liver assessed as radioactivity at 250 uCi, iv measured at 30 mins post dose. Conditions: 0.5 h. The class given is ADME, organism-based.
Data set [8] is described as follows: In vivo biostability in ICR mouse urine assessed as radioactivity at 250 uCi, iv measured at 60 mins post dose. The format is ADME, organism-based. Particulars: 1 h.
Data set [9] has as its system Blood. Briefly: In vivo biostability in ICR mouse blood assessed as radioactivity at 250 uCi, iv measured at 10 mins post dose. The class given is ADME, organism-based.
Data set [10] concerns Plasma. The data set is described as follows: Biostability in mouse plasma assessed as radioactivity at 30 uCi at 37 degC measured at 60 mins by HPLC. Particulars: 1 h. The class given is ADME, cell-free.
The subject of data set [11] is Liver. Briefly: In vivo biostability in ICR mouse liver assessed as radioactivity at 250 uCi, iv measured at 2 mins post dose. The class given is ADME, organism-based.
Data set [12] deals with T1, Amyloid-beta precursor protein. The data set is described as follows: Binding affinity to amyloid beta42 (unknown origin) after 3 hrs by gamma counting.
In data set [13] the test system is Liver. Briefly: Biostability in mouse liver homogenate assessed as radioactivity at 30 uCi at 37 degC measured at 60 mins by HPLC. The format is ADME, tissue-based. Particulars: tissue homogenate, 1 h.
The nature of data set [14]: In vivo biostability in ICR mouse urine assessed as radioactivity at 250 uCi, iv measured at 30 mins post dose. The format is ADME, organism-based. Particulars: 0.5 h.
For data set [15], the system named is Brain. Briefly: In vivo biostability in ICR mouse brain assessed as radioactivity at 250 uCi, iv measured at 30 mins post dose. The format is ADME, organism-based. Conditions: 0.5 h.
Data set [16] relates to Blood. Briefly: In vivo biostability in ICR mouse blood assessed as radioactivity at 250 uCi, iv measured at 2 mins post dose. The class given is ADME, organism-based.
In data set [17] the test system is Brain. Briefly: In vivo biostability in ICR mouse brain assessed as radioactivity at 250 uCi, iv measured at 2 mins post dose. The class given is ADME, organism-based.
The nature of data set [18]: In vivo biostability in ICR mouse feces assessed as radioactivity at 250 uCi, iv measured at 60 mins post dose. The format is ADME, organism-based. Conditions: 1 h.
The test system of data set [19] is Blood. Briefly: In vivo biostability in ICR mouse blood assessed as radioactivity at 250 uCi, iv measured at 60 mins post dose. The class given is ADME, organism-based. Conditions: 1 h.
For data set [20], the system named is Blood. The data set is described as follows: In vivo biostability in ICR mouse blood assessed as radioactivity at 250 uCi, iv measured at 30 mins post dose. The format is ADME, organism-based. Conditions: 0.5 h.
Data set [21] can be described thus: In vivo biostability in ICR mouse urine assessed as radioactivity at 250 uCi, iv measured at 10 mins post dose. The format is ADME, organism-based.
Data set [22] concerns Brain. The data set is described as follows: In vivo biostability in ICR mouse brain assessed as radioactivity at 250 uCi, iv measured at 60 mins post dose. The format is ADME, organism-based. Particulars: 1 h.
Data set [23] concerns Liver. Briefly: In vivo biostability in ICR mouse liver assessed as radioactivity at 250 uCi, iv measured at 10 mins post dose. The class given is ADME, organism-based.
Data set [24] deals with Brain. Briefly: In vivo biostability in ICR mouse brain assessed as radioactivity at 250 uCi, iv measured at 10 mins post dose. The class given is ADME, organism-based.
The test system of data set [25] is Brain. The data set is described as follows: Ratio of drug uptake in ICR mouse brain at 250 uCi, iv measured at 2 mins post dose to drug uptake in ICR mouse brain at 250 uCi, iv measured at 60 mins post dose. Conditions: in vivo. The format is ADME, organism-based.

T1 sequence (P05067 whole entry): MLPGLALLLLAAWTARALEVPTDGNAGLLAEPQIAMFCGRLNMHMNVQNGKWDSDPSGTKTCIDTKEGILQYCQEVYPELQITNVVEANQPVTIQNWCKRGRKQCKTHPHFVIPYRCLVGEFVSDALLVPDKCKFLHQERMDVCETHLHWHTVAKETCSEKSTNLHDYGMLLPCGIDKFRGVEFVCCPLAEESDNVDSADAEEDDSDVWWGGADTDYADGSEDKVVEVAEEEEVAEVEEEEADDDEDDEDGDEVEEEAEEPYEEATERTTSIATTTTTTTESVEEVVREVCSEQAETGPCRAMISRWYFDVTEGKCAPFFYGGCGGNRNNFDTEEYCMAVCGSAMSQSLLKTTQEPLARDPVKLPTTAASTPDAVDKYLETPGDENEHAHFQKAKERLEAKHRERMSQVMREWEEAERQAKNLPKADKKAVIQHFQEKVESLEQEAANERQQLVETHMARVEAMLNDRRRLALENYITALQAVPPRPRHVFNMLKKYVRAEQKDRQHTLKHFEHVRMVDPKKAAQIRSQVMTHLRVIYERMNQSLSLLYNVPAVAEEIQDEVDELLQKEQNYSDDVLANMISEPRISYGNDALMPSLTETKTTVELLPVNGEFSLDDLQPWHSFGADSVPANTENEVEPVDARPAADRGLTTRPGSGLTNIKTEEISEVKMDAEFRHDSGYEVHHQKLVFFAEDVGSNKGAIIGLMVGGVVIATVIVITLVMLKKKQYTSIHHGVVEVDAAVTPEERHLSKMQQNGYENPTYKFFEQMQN

As for `Fc1ccc(OCc2ccc(I)cc2)cc1`, the Ki in [1] (read-out: Ki) and in data set [1] (read-out: pKi (converted)) was 107 nM throughout.
`Nc1ccc(OCc2ccc(I)cc2)cc1`: the Ki is 409 nM in [1] (read-out: Ki) and 407 nM in data set [1] (read-out: pKi (converted)).
On the same counts, the results for `CN(C)c1cccc(OCc2ccc(I)cc2)c1` are 894 nM and 891 nM.
Consider `CN(C)c1ccc(OCc2ccc(I)cc2)cc1`, for which the Ki in [1] (read-out: Ki) is 17.6 nM; in data set [1] (read-out: pKi (converted)), 17.8 nM.
On to `COc1ccc(OCc2ccc(I)cc2)cc1`, for which the Ki was 24.3 nM in data set [1] (read-out: Ki) and 24.5 nM in data set [1] (read-out: pKi (converted)).
With `CN(C)c1ccc(OCc2ccc([125I])cc2)cc1`, the results for the Drug uptake in data set [2] and in data set [4] were less than 0.5 % ID/g and greater than 4 % ID/g, respectively. Moreover, the pH-dependent lipophilicity (logD) in data set [3] was determined as 2.89.
Consider `Brc1ccc(OCc2ccc(I)cc2)cc1`, for which the Ki in data set [1] (read-out: Ki) and in [1] (read-out: pKi (converted)) was 12 nM in each case.
For `Oc1cccc(OCc2ccc(I)cc2)c1`, the Ki in [1] (read-out: Ki) was 386 nM; in data set [1] (read-out: pKi (converted)), 389 nM.
Take `COc1ccc(SCc2ccc(I)cc2)cc1`: the Ki in [1] (read-out: Ki) was 530 nM; in data set [1] (read-out: pKi (converted)), 525 nM.
For `COc1cccc(OCc2ccc(I)cc2)c1`, the results for the Ki in data set [1] (read-out: Ki) and in data set [1] (read-out: pKi (converted)) were 131 nM and 132 nM, respectively.
Consider `Clc1ccc(OCc2ccc(I)cc2)cc1`, for which the Ki is 18.8 nM in data set [1] (read-out: Ki) and 18.6 nM in data set [1] (read-out: pKi (converted)).
On the same counts, the results for `Ic1ccc(COc2ccccc2)cc1` are 79.4 nM and 79.4 nM.
Turning to `COc1ccc(COc2ccc([125I])cc2)cc1`, the Drug uptake in data set [2] is recorded as less than 0.5 % ID/g; in [4] it was greater than 4 % ID/g. The logD in [3] turned out to be 4.16.
In the case of `CNc1cccc(OCc2ccc(I)cc2)c1`, the figures for the Ki in data set [1] (read-out: Ki) and in [1] (read-out: pKi (converted)) were 594 nM and 589 nM, respectively.
Consider `COc1ccc(OCc2ccc([125I])cc2)cc1`, for which the Stability in data set [5] amounted to 49.9%; in data set [6], 1.9%; in data set [7], 2.5%; in data set [8] it was 1.3%; in [9], 49.7%; in data set [10], 100%. In addition, the Stability turned out to be 42.4% in data set [11]; 100% in data set [13]; 2.4% in data set [14]; 46.6% in data set [15]; 71.5% in [16]; 95% in data set [17]. The Stability in data set [18] worked out at 40.6%; in [19], 10.6%; in data set [20], 18.2%; in data set [21], 8.4%; in data set [22] it was 38.9%; in [23], 31.9%. Moreover, in data set [24], the Stability is recorded as 82%. Further, the Drug uptake in [2] is recorded as less than 0.5 % ID/g; in [4], 6.18 % ID/g. The Kd in data set [12] is 0.56 nM. The molecule also returned a logD in [3] of 4. Moreover, in [25], the Ratio worked out at 16.3.
With `COc1ccccc1OCc1ccc(I)cc1`, the Ki in [1] (read-out: Ki) was 5160 nM; in data set [1] (read-out: pKi (converted)) it was 5130 nM.
On the same counts, the results for `Nc1ccccc1OCc1ccc(I)cc1` are 1030 nM and 1020 nM.
For `Nc1cccc(OCc2ccc(I)cc2)c1`, the Ki is 1530 nM in data set [1] (read-out: Ki) and 1550 nM in data set [1] (read-out: pKi (converted)).
For the molecule `CNc1ccccc1OCc1ccc(I)cc1`, the Ki is 20700 nM in [1] (read-out: Ki) and 20900 nM in data set [1] (read-out: pKi (converted)).
In the case of `CC(C)(C)c1ccc(OCc2ccc(I)cc2)cc1`, the figures for the Ki in data set [1] (read-out: Ki) and in data set [1] (read-out: pKi (converted)) were 118 nM and 117 nM, respectively.
On the same counts, the results for `COc1ccc(COc2ccc(I)cc2)cc1` are 49.4 nM and 49 nM.
The matching figures for `Oc1ccc(OCc2ccc(I)cc2)cc1`: 113 nM and 112 nM.
The matching figures for `Ic1ccc(COc2ccc(I)cc2)cc1`: 21.9 nM and 21.9 nM.
Consider `CNc1ccc(OCc2ccc(I)cc2)cc1`, for which the results for the Ki in data set [1] (read-out: Ki) and in [1] (read-out: pKi (converted)) were 48.2 nM and 47.9 nM, respectively.
On the same counts, the results for `Oc1ccccc1OCc1ccc(I)cc1` are 2830 nM and 2820 nM.
